For data set [1] the following is noted: Liquid.
Data set [2] in a line: refractive index (Na D-line) (dimensionless). The settings on record: 293.15 K; 101.33 kPa; Liquid; Standard Abbe refractometry.
The mark [3] stands for this setting: 308.15 K, Ebulliometric method (Recirculating still).
Setting [4] is: 318.15 K, Ebulliometric method (Recirculating still).
The mark [5] stands for this setting: 323.15 K, Ebulliometric method (Recirculating still).

Structures are written as SMILES. Numbers after ± are expanded uncertainties.

On to `Cc1ccccc1` [toluene], for which the figures for the “vapor or sublimation pressure” value in data set [1] (setting [3]), in data set [1] (setting [4]) and in data set [1] (setting [5]) were 6.18 ± 0.1 kPa, 9.88 ± 0.1 kPa and 12.28 ± 0.1 kPa, respectively. Moreover, in data set [2], the refractive index is reported as 1.4965 ± 0.0007.
Turning to `CCC(C)(C)OC` [2-methoxy-2-methylbutane], the “vapor or sublimation pressure” value in data set [1] (298.02 K) is on record as 10 ± 0.09 kPa; in data set [1] (306.98 K) it was 15 ± 0.1 kPa; in data set [1] (318.15 K), 23.99 ± 0.19 kPa; in data set [1] (319.2 K), 25 ± 0.13 kPa; in data set [1] (327.9 K), 35 ± 0.15 kPa; in data set [1] (334.78 K), 45 ± 0.18 kPa. In addition, the “vapor or sublimation pressure” value is listed as 55 ± 0.21 kPa in data set [1] (340.52 K); 65 ± 0.24 kPa in data set [1] (345.48 K); 75 ± 0.27 kPa in data set [1] (349.85 K); 85 ± 0.3 kPa in data set [1] (353.81 K); 90 ± 0.32 kPa in data set [1] (355.64 K). For the same compound, in data set [2], the refractive index is 1.3862 ± 0.0009.
`COC(C)(C)C` [2-methoxy-2-methylpropane]: the “vapor or sublimation pressure” value in data set [1] (setting [3]) is 49.48 ± 0.15 kPa; in data set [1] (setting [4]), 71.41 ± 0.17 kPa; in data set [1] (setting [5]) it was 84.91 ± 0.18 kPa. The refractive index in data set [2] was determined as 1.3698 ± 0.0007.

By vapor or sublimation pressure is commonly meant the equilibrium pressure above the liquid or solid. By refractive index is commonly meant a measure of how strongly the sample bends light.
